In PMC13044524 (Molecular Cancer Therapeutics, 2025):

Columns and labels:
[1] = tested on: bone (femur and tibia) of OVX mice; test: Osteoporosis; format: in vivo, C57BL/6 mice; conditions: 12 weeks of treatment
uterine tissue = test: Rat uterine wet weight assay; format: in vivo, Sprague–Dawley CD-IGS rats; conditions: immature rats; for epithelia height of uterine tissue (histologic staining): 3 days, compared with vehicle; for uterine wet weight (UWW): once daily for 3 days
MCF-7 cells = test: Cell proliferation assay, MCF-7; format: cell-based; conditions: Homo sapiens, MCF7, 144 h, read-out: IC50 E2-mediated proliferation

| epithelia height of uterine tissue (histologic staining) (uterine tissue) | uterine wet weight (UWW) (uterine tissue) | IC50 (MCF-7 cells) [nM] | SMILES | bone mineral density (BMD) of femur and tibia [1] |
| --- | --- | --- | --- | --- |
| dramatically increased | significantly increase UWW | – | CC/C(=C(\c1ccccc1)c1ccc(OCCN(C)C)cc1)c1ccccc1 [Tamoxifen] | significantly increased BMD |
| – | – | 0.3 | CCNCCc1ccc(CN(CC)c2cc(OC)ccc2[C@@H]2CCc3cc(O)ccc3C2)cc1 [elacestrant] | – |
| – | seemed to decrease uterine weight | 0.2 | C[C@]12CC[C@@H]3c4ccc(O)cc4C[C@@H](CCCCCCCCC[S+]([O-])CCCC(F)(F)C(F)(F)F)[C@H]3[C@@H]1CC[C@@H]2O (stereo partly drawn) [Fulvestrant] | further decreased BMD |

| SMILES | epithelia height of uterine tissue (histologic staining) (uterine tissue) | uterine wet weight (UWW) (uterine tissue) | IC50 (MCF-7 cells) [nM] | bone mineral density (BMD) of femur and tibia [1] |
| --- | --- | --- | --- | --- |
| C[C@@H]1Cc2c([nH]c3ccccc23)[C@@H](c2c(F)cc(/C=C/C(=O)O)cc2F)N1CC(C)(C)F [AZD9496, (E)-3-(3,5-Difluoro-4-((1R,3R)-2-(2-fluoro-2-methylpropyl)-3-methyl-2,3,4,9-tetrahydro-1H-pyrido[3,4-b]indol-1-yl)phenyl)acrylic acid] | slightly increased | did not affect uterine weight significantly | – | – |
